Test results published in publication PMC2248166, “Quantitative peptide binding motifs for 19 human and mouse MHC class I molecules derived using positional scanning combinatorial peptide libraries” (Immunome Research, 2008).
Where a SMILES comes first, the peptide text is derived from it.

Molecular target: HLA A*3001 (Homo sapiens, UniProt P04439, D140H/D185E/E176W/F33S/G80R/H175R/K168Q/R138E/R41S)
Experiment: biochemical
Type: binding

HLA A*3001, sequence (P04439 25-365 limits assumed, stated change not applied): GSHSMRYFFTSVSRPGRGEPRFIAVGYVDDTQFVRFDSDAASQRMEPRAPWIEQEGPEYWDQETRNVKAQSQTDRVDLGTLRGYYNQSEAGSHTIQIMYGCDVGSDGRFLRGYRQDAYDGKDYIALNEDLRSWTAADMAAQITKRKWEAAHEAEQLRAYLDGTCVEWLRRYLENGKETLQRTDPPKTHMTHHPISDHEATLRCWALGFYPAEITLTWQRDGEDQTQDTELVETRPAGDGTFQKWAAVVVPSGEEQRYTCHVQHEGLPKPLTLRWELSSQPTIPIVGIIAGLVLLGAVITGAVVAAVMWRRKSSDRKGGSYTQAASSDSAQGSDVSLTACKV

Row | SMILES | IC50 [nM]
1 | CC[C@H](C)[C@H](N)C(=O)N[C@H](C(=O)N[C@@H](CCCCN)C(=O)N[C@H](C(=O)N[C@@H](CC(N)=O)C(=O)N[C@H](C(=O)N[C@@H](Cc1c[nH]cn1)C(=O)N[C@@H](CC(C)C)C(=O)N[C@@H](C)C(=O)O)[C@@H](C)O)[C@@H](C)CC)[C@@H](C)O [3102.0001] (H-ITKINTHLA-OH) | 15
2 | CC[C@H](C)[C@H](N)C(=O)N[C@H](C(=O)N[C@@H](CCCCN)C(=O)N[C@@H](CO)C(=O)N1CCC[C@H]1C(=O)N[C@@H](Cc1ccc(O)cc1)C(=O)N[C@@H](CCSC)C(=O)N[C@@H](Cc1ccccc1)C(=O)N[C@@H](C)C(=O)O)[C@@H](C)CC [3102.0003] (H-IIKSPYMFA-OH) | 6.4
3 | CC[C@H](C)[C@H](NC(=O)[C@H](CC(C)C)NC(=O)[C@@H](NC(=O)[C@@H](NC(=O)[C@H](CCCNC(=N)N)NC(=O)[C@H](Cc1ccccc1)NC(=O)[C@@H](N)CCCNC(=N)N)[C@@H](C)O)C(C)C)C(=O)N[C@@H](CO)C(=O)N[C@@H](CCCCN)C(=O)O [3102.0004] (H-RFRTVLISK-OH) | 4.6
4 | CC(C)C[C@H](NC(=O)[C@H](CC(N)=O)NC(=O)[C@H](CC(C)C)NC(=O)[C@H](CCCNC(=N)N)NC(=O)[C@H](CCCNC(=N)N)NC(=O)[C@H](CO)NC(=O)[C@H](CCCCN)NC(=O)[C@H](CO)NC(=O)[C@@H](N)CCCCN)C(=O)O [3102.0008] (H-KSKSRRLNL-OH) | 13
5 | CC(C)C[C@H](NC(=O)[C@H](CC(N)=O)NC(=O)[C@H](CC(C)C)NC(=O)[C@H](CCCNC(=N)N)NC(=O)[C@H](CCCNC(=N)N)NC(=O)[C@H](CO)NC(=O)[C@@H](N)CCCCN)C(=O)N[C@@H](Cc1ccccc1)C(=O)N[C@@H](CO)C(=O)O [3102.0009] (H-KSRRLNLFS-OH) | 3.3
6 | CC[C@H](C)[C@H](NC(=O)[C@H](CCSC)NC(=O)[C@H](CCCCN)NC(=O)[C@@H](NC(=O)[C@@H](N)CC(C)C)C(C)C)C(=O)N[C@@H](CC(N)=O)C(=O)N[C@@H](Cc1c[nH]cn1)C(=O)N[C@@H](CC(C)C)C(=O)N[C@@H](CCCCN)C(=O)O [3102.0010] (H-LVKMINHLK-OH) | 42
7 | CSCC[C@H](N)C(=O)N[C@H](C(=O)N[C@@H](CCCNC(=N)N)C(=O)N[C@@H](CC(C)C)C(=O)N[C@H](C(=O)N[C@H](C(=O)N[C@@H](CCC(N)=O)C(=O)NCC(=O)N[C@@H](CC(C)C)C(=O)O)[C@@H](C)O)[C@@H](C)O)C(C)C [3102.0012] (H-MVRLTTQGL-OH) | 8.3
8 | CC[C@H](C)[C@H](NC(=O)[C@@H](N)CCCCN)C(=O)N[C@@H](CCCCN)C(=O)N[C@@H](CO)C(=O)N1CCC[C@H]1C(=O)N[C@H](C(=O)N[C@@H](Cc1ccc(O)cc1)C(=O)N[C@@H](Cc1ccc(O)cc1)C(=O)N[C@@H](CCCCN)C(=O)O)[C@@H](C)CC [3102.0014] (H-KIKSPIYYK-OH) | 0.93
9 | CC(C)[C@H](NC(=O)[C@@H](N)CCCCN)C(=O)N[C@@H](Cc1ccccc1)C(=O)N[C@H](C(=O)N1CCC[C@H]1C(=O)N[C@@H](C)C(=O)N1CCC[C@H]1C(=O)N[C@@H](Cc1ccccc1)C(=O)NCC(=O)O)C(C)C [3102.0015] (H-KVFVPAPFG-OH) | 6.6
10 | CC[C@H](C)[C@H](NC(=O)[C@H](CCCCN)NC(=O)[C@@H](NC(=O)[C@@H](N)Cc1c[nH]cn1)[C@@H](C)O)C(=O)N[C@@H](CC(=O)O)C(=O)N[C@@H](CO)C(=O)N[C@@H](CCSC)C(=O)N[C@@H](Cc1ccccc1)C(=O)N[C@@H](CC(C)C)C(=O)O [3102.0016] (H-HTKIDSMFL-OH) | 1.5
11 | CC(C)C[C@H](NC(=O)[C@H](CO)NC(=O)[C@@H]1CCCN1C(=O)[C@@H]1CCCN1C(=O)[C@H](CO)NC(=O)[C@@H](NC(=O)[C@@H](N)CCCCN)C(C)C)C(=O)NCC(=O)N[C@@H](CCCCN)C(=O)O [3102.0017] (H-KVSPPSLGK-OH) | 1.1
12 | CC[C@H](C)[C@H](NC(=O)[C@H](C)NC(=O)[C@H](CC(C)C)NC(=O)[C@H](Cc1c[nH]cn1)NC(=O)[C@H](CCC(N)=O)NC(=O)[C@@H](N)Cc1c[nH]cn1)C(=O)N[C@@H](CCSC)C(=O)N[C@@H](Cc1ccccc1)C(=O)N[C@@H](CCCCN)C(=O)O [3102.0020] (H-HQHLAIMFK-OH) | 5
13 | CSCC[C@H](NC(=O)[C@H](CO)NC(=O)[C@H](CCCNC(=N)N)NC(=O)[C@@H]1CCCN1C(=O)[C@H](Cc1ccccc1)NC(=O)[C@H](CCCCN)NC(=O)[C@H](CO)NC(=O)[C@@H](N)CCCCN)C(=O)N[C@@H](CC(C)C)C(=O)O [3102.0022] (H-KSKFPRSML-OH) | 31
14 | CC(C)C[C@H](NC(=O)[C@H](CO)NC(=O)[C@H](CO)NC(=O)[C@H](CCC(=O)O)NC(=O)[C@H](CCCCN)NC(=O)[C@H](CCCCN)NC(=O)[C@H](Cc1ccccc1)NC(=O)[C@@H](N)CCCNC(=N)N)C(=O)N[C@@H](C)C(=O)O [3102.0023] (H-RFKKESSLA-OH) | 0.31
15 | CSCC[C@H](N)C(=O)N[C@@H](CC(C)C)C(=O)N[C@@H](CCCNC(=N)N)C(=O)N[C@H](C(=O)N[C@H](C(=O)N[C@@H](Cc1ccc(O)cc1)C(=O)N[C@@H](CS)C(=O)N[C@@H](CC(N)=O)C(=O)N[C@@H](CCCCN)C(=O)O)C(C)C)[C@@H](C)O [3102.0024] (H-MLRTVYCNK-OH) | 0.26
16 | CC(C)[C@H](NC(=O)[C@H](CO)NC(=O)[C@H](CCCNC(=N)N)NC(=O)[C@H](CCCCN)NC(=O)[C@H](CO)NC(=O)[C@H](CC(N)=O)NC(=O)[C@H](CCCNC(=N)N)NC(=O)[C@H](CC(N)=O)NC(=O)[C@@H](N)CCCCN)C(=O)O [3102.0025] (H-KNRNSKRSV-OH) | 33
17 | CC[C@H](C)[C@H](NC(=O)[C@H](CC(N)=O)NC(=O)[C@@H]1CCCN1C(=O)[C@H](CCCNC(=N)N)NC(=O)[C@H](Cc1ccc(O)cc1)NC(=O)[C@@H](N)CC(C)C)C(=O)N1CCC[C@H]1C(=O)N[C@@H](CC(C)C)C(=O)N[C@@H](CCCCN)C(=O)O [3102.0026] (H-LYRPNIPLK-OH) | 3.5
18 | CC[C@H](C)[C@H](NC(=O)[C@H](Cc1ccccc1)NC(=O)[C@H](CCCCN)NC(=O)CNC(=O)[C@H](CCC(N)=O)NC(=O)[C@H](CCCNC(=N)N)NC(=O)[C@@H](NC(=O)[C@@H](N)CCCNC(=N)N)[C@@H](C)CC)C(=O)N[C@@H](CCCCN)C(=O)O [3102.0028] (H-RIRQGKFIK-OH) | 4.8
19 | CC[C@H](C)[C@H](N)C(=O)N[C@H](C(=O)N[C@@H](CCCCN)C(=O)N[C@@H](CO)C(=O)N[C@@H](CO)C(=O)N[C@@H](Cc1ccc(O)cc1)C(=O)N[C@H](C(=O)N[C@@H](Cc1ccccc1)C(=O)N[C@@H](CCCCN)C(=O)O)C(C)C)[C@@H](C)CC [3102.0029] (H-IIKSSYVFK-OH) | 11
20 | CC(C)C[C@H](NC(=O)[C@H](Cc1ccccc1)NC(=O)[C@H](CC(N)=O)NC(=O)[C@H](Cc1ccccc1)NC(=O)[C@@H]1CCCN1C(=O)[C@H](C)NC(=O)[C@H](CC(C)C)NC(=O)[C@@H](NC(=O)[C@@H](N)CCCCN)[C@@H](C)O)C(=O)O [3102.0030] (H-KTLAPFNFL-OH) | 15
21 | N=C(N)NCCC[C@H](NC(=O)CNC(=O)[C@@H](N)CCCCN)C(=O)N[C@@H](CCCNC(=N)N)C(=O)N[C@@H](CCC(N)=O)C(=O)N[C@@H](Cc1ccc(O)cc1)C(=O)N[C@@H](Cc1ccccc1)C(=O)N[C@@H](Cc1ccc(O)cc1)C(=O)NCC(=O)O [3102.0035] (H-KGRRQYFYG-OH) | 2.9
22 | CC[C@H](C)[C@H](NC(=O)[C@H](CCCCN)NC(=O)[C@@H](NC(=O)[C@@H](N)CCCNC(=N)N)[C@@H](C)O)C(=O)N1CCC[C@H]1C(=O)N[C@@H](CC(C)C)C(=O)N[C@@H](CO)C(=O)N[C@@H](CCCCN)C(=O)N[C@H](C(=O)O)C(C)C [3102.0039] (H-RTKIPLSKV-OH) | 4.1
23 | CC[C@H](C)[C@H](NC(=O)CNC(=O)[C@H](CC(C)C)NC(=O)[C@@H]1CCCN1C(=O)CNC(=O)[C@H](CCCNC(=N)N)NC(=O)[C@@H](NC(=O)[C@@H](N)CCCNC(=N)N)[C@@H](C)O)C(=O)N[C@@H](CC(C)C)C(=O)O [3102.0040] (H-RTRGPLGIL-OH) | 0.086
24 | CC[C@H](C)[C@H](NC(=O)[C@H](CCCCN)NC(=O)[C@@H](NC(=O)[C@H](CO)NC(=O)[C@H](CCC(N)=O)NC(=O)[C@H](CC(=O)O)NC(=O)[C@H](CCCNC(=N)N)NC(=O)[C@H](CC(C)C)NC(=O)[C@@H](N)Cc1c[nH]cn1)[C@@H](C)CC)C(=O)O [3102.0041] (H-HLRDQSIKI-OH) | 15
25 | C[C@@H](O)[C@H](NC(=O)[C@H](CO)NC(=O)CNC(=O)[C@H](CCCNC(=N)N)NC(=O)[C@H](CC(N)=O)NC(=O)CN)C(=O)N[C@@H](CO)C(=O)N[C@@H](Cc1ccccc1)C(=O)N[C@@H](CCCCN)C(=O)O [3102.0043] (H-GNRGSTSFK-OH) | 2
26 | CC[C@H](C)[C@H](NC(=O)[C@H](C)NC(=O)[C@H](Cc1c[nH]cn1)NC(=O)[C@H](CO)NC(=O)[C@@H](N)CCCCN)C(=O)N[C@@H](Cc1ccc(O)cc1)C(=O)N[C@@H](Cc1c[nH]c2ccccc12)C(=O)N[C@@H](CC(=O)O)C(=O)N[C@@H](CCCCN)C(=O)O [3102.0046] (H-KSHAIYWDK-OH) | 11
27 | C[C@@H](O)[C@H](NC(=O)[C@@H](N)CCCNC(=N)N)C(=O)N[C@@H](Cc1c[nH]cn1)C(=O)N[C@@H](Cc1ccccc1)C(=O)N[C@@H](CO)C(=O)N[C@@H](CCC(N)=O)C(=O)N1CCC[C@H]1C(=O)N[C@@H](CO)C(=O)NCC(=O)O [3102.0048] (H-RTHFSQPSG-OH) | 15
28 | CC(C)C[C@H](NC(=O)[C@H](Cc1ccc(O)cc1)NC(=O)[C@H](CC(C)C)NC(=O)[C@H](Cc1ccccc1)NC(=O)[C@H](C)NC(=O)[C@H](Cc1ccccc1)NC(=O)[C@H](CCCNC(=N)N)NC(=O)[C@H](Cc1ccc(O)cc1)NC(=O)[C@@H](N)CCCNC(=N)N)C(=O)O [3102.0049] (H-RYRFAFLYL-OH) | 0.17
29 | CC[C@H](C)[C@H](NC(=O)[C@H](Cc1c[nH]cn1)NC(=O)[C@H](Cc1ccccc1)NC(=O)[C@H](CO)NC(=O)[C@@H](NC(=O)[C@@H](N)CCCCN)[C@@H](C)O)C(=O)N[C@H](C(=O)N[C@@H](Cc1ccccc1)C(=O)N[C@@H](CC(C)C)C(=O)O)[C@@H](C)CC [3102.0050] (H-KTSFHIIFL-OH) | 25
30 | CC[C@H](C)[C@H](NC(=O)[C@H](CC(N)=O)NC(=O)[C@H](CC(=O)O)NC(=O)[C@H](CO)NC(=O)[C@H](CCCNC(=N)N)NC(=O)[C@@H](NC(=O)[C@@H](N)CCCCN)[C@@H](C)CC)C(=O)N[C@@H](CCCCN)C(=O)N[C@@H](CCCCN)C(=O)O [3102.0051] (H-KIRSDNIKK-OH) | 12
